Test results: patent publication US20030040531A1, “Remedies for reperfusion injury containing integrin alphanubeta 3 antagonist” (priority 2000, published 2003)
Where two headings read alike, the source gives them in different places.

Experiments:
integrin αvβ3 = integrin αvβ3 (Homo sapiens, UniProt P05106+P06756); assay: integrin αvβ3 binding assay (Pharmacological Example 1 in WO 99/38849)
Text: Whether or not a compound has integrin αvβ3 antagonistic activity may be determined by assaying the antagonistic action by integrin αvβ3 binding assay as described, for example, in Pharmacological Test Example 1 in WO 99/38849.

[1] = tested on: rat vascular smooth muscle cells; assay: adhesion of rat vascular smooth muscle cells to rat vitronectin; type: cell-based; details: read-out: concentration (IC50) necessary for inhibition of adhesion to vitronectin
Description: (§1) The adhesion of vascular smooth muscle cells to immobilized human vitronectin was measured in accordance with the method of Liaw et al. (L. Liaw et al., Circ. Res., 74, 214 (1994)). A Dulbecco's phosphate buffer (Dulbecco's PBS(−)) solution of human serum-derived vitronectin adjusted to a concentration of 4 μg/ml was first added to wells (50 μl/well) of a microplate (Maxisorp), and a reaction for immobilization was allowed to proceed at 4° C. overnight. After washing twice with 150 μl of Dulbecco's PBS (−), Dulbecco's PBS (−) containing 10 mg/ml of bovine serum albumin was added, followed by blocking at 37° C. for one hr. The microplate was then washed twice with 150 μl of Dulbecco's PBS (−) to prepare an assay plate.
(§2) Next, 50 μl of a Dulbecco's modified Eagle's basal medium containing 20 mg/ml of bovine serum albumin with a medicament added thereto was added to the wells of the human vitronectin-coated assay microplate, followed by pre-cultivation under 5% carbon dioxide at 37° C. for 10 min. Thereafter, 50 μl of the Dulbecco's modified Eagle's basal medium with human vascular smooth muscle cells suspended therein was added thereto, and the plate was thoroughly stirred. A reaction was allowed to proceed under 5% carbon dioxide at 37° C. for 90 min. The reaction solution containing non-adherent cells was then removed, followed by washing three times with Dulbecco's PBS (−). For the adhered cells, 100 μl of Dulbecco's PBS (−) containing 4% paraformaldehyde was added, and immobilization was allowed to proceed at room temperature for 10 min. Next, 100 μl of a Dulbecco's PBS (−) containing 0.5% Toluidine Blue and 4% paraformaldehyde was added, and staining was allowed to proceed at room temperature for 5 min, followed by thorough washing with distilled water. The inside of the wells was then air-dried, and 1% aqueous sodium dodecylsulfate solution was then added to perform cytolysis. The absorbance of the microplate thus obtained was measured at 595 nm. […] The inhibition was calculated by the following equation. IC50 was determined from a primary regression line of the logarithm of each concentration of the test compound and the logarithm of (100−inhibition)/inhibition. [formula]
Rat vascular smooth muscle cells were cultivated in a medium composed of a mixture of equal amounts of 15% fetal calf serum-containing 199 medium and RPMI 1640 medium. Separately, hamster and dog vascular smooth muscle cells were cultivated in a 10% fetal calf serum-containing Dulbecco's modified Eagle's basal medium. These cultivated cells were then suspended in a Dulbecco's modified Eagle's basal medium to concentrations of 3×10^5 cells/ml (rat), 3×10^5 cells/ml (hamster), and 4×10^5 cells /ml (dog), respectively. Rat vitronectin was used in the adhesion system of rats and hamsters, while bovine vitronectin was used in the adhesion system of dogs.

[2] = tested on: rat peritoneal cavity macrophage
Description: A Dulbecco's phosphate buffer (PBS (−)) solution of rat serum-derived vitronectin adjusted to a concentration of 5 μg/ml was first added to wells (50 μl/well) of a microplate (Maxisorp), and a reaction for immobilization was allowed to proceed at 4° C. overnight. After washing twice with 150 μl of PBS (−), PBS (−) containing 10 mg/ml of bovine serum albumin was added, followed by blocking at 37° C. for one hr. The microplate was then washed twice with 150 μl of PBS (−) to prepare an assay plate.
Rat peritoneal cavity macrophage was collected after the induction of thioglycolate into the peritoneal cavity. Specifically, a 3% thioglycolate medium was intraperitoneally administered into Wistar male rats (300 to 400 g) at a dose of 100 ml/kg, and, four days after the administration, intraperitoneal fluid and cold PBS (−) (100 ml/kg) injected into the peritoneal cavity were withdrawn to collect macrophage. The macrophage was isolated by removing nonadherent cells. Specifically, the cells collected from the peritoneal cavity were washed twice with PBS (−) and were then cultivated in a Dulbecco's modified Eagle's basal medium containing 0.1% bovine serum albumin under 5% carbon dioxide for 30 min to perform adhesion of macrophage. Next, nonadherent cells were removed, followed by washing with PBS (−). Thereafter, macrophage was collected with a cell scraper. The collected rat macrophage was washed twice with PBS (−) and was then suspended in a Dulbecco's modified Eagle's basal medium to a concentration of 8×10^5/ml. Next, 50 μl of a Dulbecco's modified Eagle's basal medium containing 0.2% bovine serum albumin with a medicament added thereto was added to the wells of the vitronectin-coated assay microplate, followed by pre-cultivation under 5% carbon dioxide at 37° C. for 10 min. Thereafter, 50 μl of the Dulbecco's modified Eagle's basal medium with macrophage suspended therein was added thereto, and the plate was thoroughly stirred. A reaction was allowed to proceed under 5% carbon dioxide at 37° C. for 10 min. […] The absorbance of the microplate thus obtained was measured at 595 nm.

[3] = tested on: human vascular smooth muscle cells; assay: adhesion of human vascular smooth muscle cells to immobilized human vitronectin; type: cell-based; details: read-out: concentration (IC50) necessary for inhibition of adhesion to vitronectin
Description: as §1
Separately, human vascular smooth muscle cells cultivated at 37° C. under 5% carbon dioxide in a medium for vascular smooth muscle cells were separated using a Dulbecco's PBS (−) containing trypsin-EDTA, were washed with Dulbecco's PBS (−), and were then suspended in a Dulbecco's modified Eagle's basal medium to a concentration of 2×10^5/ml.
as §2

Chain of integrin αvβ3 (P06756 31-1048): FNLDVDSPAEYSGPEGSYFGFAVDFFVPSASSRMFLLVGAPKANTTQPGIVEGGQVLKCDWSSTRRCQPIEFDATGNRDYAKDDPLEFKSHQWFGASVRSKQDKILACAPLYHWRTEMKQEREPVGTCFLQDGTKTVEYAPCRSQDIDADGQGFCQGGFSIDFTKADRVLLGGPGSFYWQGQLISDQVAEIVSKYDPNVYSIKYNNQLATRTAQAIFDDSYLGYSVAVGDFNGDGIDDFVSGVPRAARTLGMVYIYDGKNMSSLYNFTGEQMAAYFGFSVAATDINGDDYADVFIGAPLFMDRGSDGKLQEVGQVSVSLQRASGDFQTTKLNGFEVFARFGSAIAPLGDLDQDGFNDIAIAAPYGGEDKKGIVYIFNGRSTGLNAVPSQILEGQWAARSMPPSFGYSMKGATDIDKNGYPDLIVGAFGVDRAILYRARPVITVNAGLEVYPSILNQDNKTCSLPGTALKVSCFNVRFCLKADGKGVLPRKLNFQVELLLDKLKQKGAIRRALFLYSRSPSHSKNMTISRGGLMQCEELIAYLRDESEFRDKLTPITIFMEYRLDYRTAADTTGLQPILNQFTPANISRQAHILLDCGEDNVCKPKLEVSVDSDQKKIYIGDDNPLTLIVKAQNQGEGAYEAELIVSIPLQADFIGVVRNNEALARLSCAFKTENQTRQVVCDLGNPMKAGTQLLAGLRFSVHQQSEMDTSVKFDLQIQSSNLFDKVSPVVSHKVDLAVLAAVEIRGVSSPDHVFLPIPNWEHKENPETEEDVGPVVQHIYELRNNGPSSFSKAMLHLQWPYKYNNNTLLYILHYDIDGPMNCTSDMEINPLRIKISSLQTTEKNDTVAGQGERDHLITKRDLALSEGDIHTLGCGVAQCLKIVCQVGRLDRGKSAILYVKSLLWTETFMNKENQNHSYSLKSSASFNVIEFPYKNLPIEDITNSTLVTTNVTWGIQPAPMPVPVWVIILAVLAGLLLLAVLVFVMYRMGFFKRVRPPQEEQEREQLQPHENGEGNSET
Chain of integrin αvβ3 (P05106 27-788): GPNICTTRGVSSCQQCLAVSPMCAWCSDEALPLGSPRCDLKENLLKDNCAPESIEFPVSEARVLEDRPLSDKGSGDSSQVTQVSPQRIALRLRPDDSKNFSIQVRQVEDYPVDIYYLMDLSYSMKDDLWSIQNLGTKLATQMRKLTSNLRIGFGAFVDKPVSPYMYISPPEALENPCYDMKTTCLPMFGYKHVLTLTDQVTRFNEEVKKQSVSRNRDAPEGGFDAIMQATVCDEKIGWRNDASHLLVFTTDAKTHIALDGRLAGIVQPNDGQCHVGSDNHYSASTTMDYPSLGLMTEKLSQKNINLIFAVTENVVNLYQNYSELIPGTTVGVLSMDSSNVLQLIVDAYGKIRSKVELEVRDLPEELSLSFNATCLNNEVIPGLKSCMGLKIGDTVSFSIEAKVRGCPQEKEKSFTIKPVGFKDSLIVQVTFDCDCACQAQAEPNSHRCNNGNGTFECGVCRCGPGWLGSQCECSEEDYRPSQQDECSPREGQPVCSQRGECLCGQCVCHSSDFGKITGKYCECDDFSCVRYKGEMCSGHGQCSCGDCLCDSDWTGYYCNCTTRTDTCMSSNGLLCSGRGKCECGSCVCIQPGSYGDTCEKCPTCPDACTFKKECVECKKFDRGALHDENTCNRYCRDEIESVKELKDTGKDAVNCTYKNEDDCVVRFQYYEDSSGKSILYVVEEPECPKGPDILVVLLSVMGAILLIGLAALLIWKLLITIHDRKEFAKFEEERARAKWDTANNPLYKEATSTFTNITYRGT

O=C(NCC(NS(=O)(=O)c1ccccc1)C(=O)O)c1ccc(N2CCC(NC3=NCCCN3)CC2)c(F)c1 (stereo in doubt) [formula (IV), (2S)-Benzenesulfonylamino-3-[3-fluoro-4-{4-(1,4,5,6-tetrahydropyrimidin-2-ylamino)-piperidin-1-yl}benzoylamino]propionic Acid]
IC50 (integrin αvβ3): 0.2 nM
IC50 [1]: 230 nM
fluorescence intensity (adhered rat macrophage) ([2]; 0.1 µM): 0.086±0.069 arbitrary unit
fluorescence intensity (adhered rat macrophage) ([2]; 1 µM): 0.031 +0.037 arbitrary unit
fluorescence intensity (adhered rat macrophage) ([2]; 10 µM): 0.012 +0.038 arbitrary unit
IC50 [3]: 37 nM
